39 compounds from US8846719B2, “Isoxazolo-pyridine derivatives” (Roche Palo Alto LLC, priority 2007, dated 2014) can be followed below.

Molecules are shown by their SMILES.

The test addresses human GABA A receptor α5β3γ2 (Homo sapiens (Human), UniProt P18507+P31644). Nature of the test: [3H]flumazenil competition binding assay, human GABA A α5β3γ2 receptors expressed in HEK293 cells. The settings on record: human receptor; displacement of [3H]flumazenil (0.5 nM); means of two determinations; read-out: hKi GABAAa5. Summed up:
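Competition for [3H]flumazenil binding on membranes of HEK293 cells transiently transfected with human α5β3γ2 receptors, in Krebs-tris buffer pH 7.5.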

On to `Cc1onc(-c2ccccc2)c1COc1ccc(C(=O)N(C)C(C)C)cn1` [Example 70, N-Isopropyl-N-methyl-6-(5-methyl-3-phenyl-isoxazol-4-ylmethoxy)-nicotinamide], for which the Ki was 53.1 nM.

Turning to `Cc1onc(-c2cccnc2)c1COc1ccc(C(=O)NCC(F)(F)F)cn1` [Example 155, 6-(5-Methyl-3-pyridin-3-yl-isoxazol-4-ylmethoxy)-N-(2,2,2-trifluoro-ethyl)-nicotinamide], the Ki turned out to be 24 nM.

As to `Cc1onc(-c2ccccc2)c1COc1cc(C(=O)NC2CCOCC2)ccn1` [Example 59, 2-(5-Methyl-3-phenyl-isoxazol-4-ylmethoxy)-N-(tetrahydro-pyran-4-yl)-isonicotinamide], the Ki came to 55.4 nM.

For `Cc1onc(-c2ccccc2)c1COc1ccc(C(=O)N2CCCC2C)cn1` (stereo not drawn) [Example 227, [6-(5-Methyl-3-phenyl-isoxazol-4-ylmethoxy)-pyridin-3-yl]-(2-methyl-pyrrolidin-1-yl)-methanone], the Ki turned out to be 48 nM.

For `CCC(CC)CNC(=O)c1ccc(OCc2c(-c3ccccc3)noc2C)nc1` [Example 17, N-(2-Ethyl-butyl)-6-(5-methyl-3-phenyl-isoxazol-4-ylmethoxy)-nicotinamide], the Ki was determined as 7.7 nM.

Regarding `CCNC(=O)c1ccc(OCc2c(-c3ccncn3)noc2C)nc1` [Example 317, N-Ethyl-6-(5-methyl-3-pyrimidin-4-yl-isoxazol-4-ylmethoxy)-nicotinamide], the Ki stood at 3.1 nM.

Take `Cc1onc(-c2ccccc2)c1COc1ccc(C(=O)N[C@@H](C)C(F)(F)F)cn1` [Example 235, 6-(5-Methyl-3-phenyl-isoxazol-4-ylmethoxy)-N—((S)-2,2,2-trifluoro-1-methyl-ethyl)-nicotinamide]: the Ki was 1.9 nM.

Turning to `Cc1onc(-c2ccncn2)c1COc1ccc(C(=O)NCCO)cn1` [Example 320, N-(2-Hydroxy-ethyl)-6-(5-methyl-3-pyrimidin-4-yl-isoxazol-4-ylmethoxy)-nicotinamide], the Ki is 6 nM.

For `Cc1onc(-c2ccc(F)cn2)c1COc1ccc(C(=O)NCC(F)(F)F)cn1` [Example 294], the Ki worked out at 0.3 nM.

Consider `Cc1onc(-c2ccccc2)c1COc1ccc(C(=O)NCCNC(=O)OC(C)(C)C)cn1` [Example 217, (2-{[6-(5-Methyl-3-phenyl-isoxazol-4-ylmethoxy)-pyridine-3-carbonyl]-amino}-ethyl)-carbamic acid tert-butyl ester], for which the Ki came out at 8.4 nM.

On to `Cc1onc(-c2ccccc2)c1CNc1ccccn1` [Example 160, (5-Methyl-3-phenyl-isoxazol-4-ylmethyl)-pyridin-2-yl-amine], for which the Ki turned out to be 87.3 nM.

With `Cc1onc(-c2ccc(F)cc2)c1COc1ccc(C(=O)N2CCOCC2)cn1` [Example 110, {6-[3-(4-Fluoro-phenyl)-5-methyl-isoxazol-4-ylmethoxy]-pyridin-3-yl}-morpholin-4-yl-methanone], the Ki turned out to be 13 nM.

`Cc1onc(-c2cc(F)ccc2F)c1COc1ccc(C(=O)NC(C)C)cn1` [Example 265, 6-[3-(2,5-Difluoro-phenyl)-5-methyl-isoxazol-4-ylmethoxy]-N-isopropyl-nicotinamide]: the Ki is 27.3 nM.

For the compound `Cc1onc(-c2ccc(F)cc2)c1COc1ccc(C(=O)NCC(F)(F)F)cn1` [Example 105, 6-[3-(4-Fluoro-phenyl)-5-methyl-isoxazol-4-ylmethoxy]-N-(2,2,2-trifluoro-ethyl)-nicotinamide], the Ki came out at 1.2 nM.

For the compound `Cc1onc(-c2cc(F)ccc2F)c1COc1ccc(C(=O)NC2CCOCC2)cn1` [Example 266, 6-[3-(2,5-Difluoro-phenyl)-5-methyl-isoxazol-4-ylmethoxy]-N-(tetrahydro-pyran-4-yl)-nicotinamide], the Ki worked out at 4.3 nM.

Consider `Cc1onc(-c2ccccc2)c1COc1ccc(C(F)(F)F)cn1` [Example 4, 2-(5-Methyl-3-phenyl-isoxazol-4-ylmethoxy)-5-trifluoromethylpyridine], for which the Ki was found to be 60.8 nM.

In the case of `COC(=O)c1ccc(OCc2c(-c3ccc(Cl)cc3)noc2C)nc1` [Example 115, 6-[3-(4-Chloro-phenyl)-5-methyl-isoxazol-4-ylmethoxy]-nicotinic acid methyl ester], the Ki is 4.5 nM.

Consider `Cc1onc(-c2ccncc2)c1COc1ccc(C(=O)NC(C)C)cn1` [Example 149, N-Isopropyl-6-(5-methyl-3-pyridin-4-yl-isoxazol-4-ylmethoxy)-nicotinamide], for which the Ki stood at 4.5 nM.

As to `Cc1onc(-c2ccccc2)c1COc1ccc(C(=O)N[C@H]2CCCC[C@H]2O)cn1` (racemic) [Example 199, N-((1S,2R) and (1R,2S)-2-Hydroxy-cyclohexyl)-6-(5-methyl-3-phenyl-isoxazol-4-ylmethoxy)-nicotinamide], the Ki was found to be 2.8 nM.

On to `Cc1onc(-c2ccccn2)c1COc1ccc(C(=O)NCC(F)(F)F)cn1` [Example 275, 6-(5-Methyl-3-pyridin-2-yl-isoxazol-4-ylmethoxy)-N-(2,2,2-trifluoro-ethyl)-nicotinamide], for which the Ki came to 1.1 nM.

Take `Cc1onc(-c2ccncn2)c1COc1ccc(C(=O)N2CCSCC2)cn1` [Example 319, [6-(5-Methyl-3-pyrimidin-4-yl-isoxazol-4-ylmethoxy)-pyridin-3-yl]-thiomorpholin-4-yl-methanone]: the Ki was determined as 20.2 nM.

For `Cc1cccc(-c2noc(C)c2COc2ccc(C(=O)NC3CCOCC3)cn2)c1` [Example 249, 6-(5-Methyl-3-m-tolyl-isoxazol-4-ylmethoxy)-N-(tetrahydro-pyran-4-yl)-nicotinamide], the Ki was determined as 3.2 nM.

On to `Cc1onc(-c2ccccc2)c1CNc1ccc(C(=O)NCCO)cn1` [Example 162, N-(2-Hydroxy-ethyl)-6-[(5-methyl-3-phenyl-isoxazol-4-ylmethyl)-amino]-nicotinamide], for which the Ki is 10.4 nM.

In the case of `Cc1onc(-c2ccccc2)c1COc1ccc(C(=O)NC(C)(C)CO)cn1` [Example 183, N-(2-Hydroxy-1,1-dimethyl-ethyl)-6-(5-methyl-3-phenyl-isoxazol-4-ylmethoxy)-nicotinamide], the Ki stood at 10 nM.

As to `Cc1onc(-c2ccc(F)cn2)c1COc1ccc(C(=O)N2CCS(=O)(=O)CC2)cn1` [Example 293, (1,1-Dioxo-1,6-thiomorpholin-4-yl)-{6-[3-(5-fluoro-pyridin-2-yl)-5-methyl-isoxazol-4-ylmethoxy]-pyridin-3-yl}-methanone], the Ki turned out to be 1.2 nM.

For the compound `Cc1onc(-c2ccc(F)c(F)c2)c1COc1ccc(C(=O)NCC(C)(C)O)cn1` [Example 269, 6-[3-(3,4-Difluoro-phenyl)-5-methyl-isoxazol-4-ylmethoxy]-N-(2-hydroxy-2-methyl-propyl)-nicotinamide], the Ki came to 6.7 nM.

As for `Cc1onc(-c2ccccn2)c1COc1ccc(C(=O)NCCO)cn1` [Example 284, (2-Hydroxy-ethyl)-6-(5-methyl-3-pyridin-2-yl-isoxazol-4-ylmethoxy)-nicotinamide], the Ki came to 0.5 nM.

`Cc1onc(-c2ccc(F)cc2)c1CNc1ccc(C(=O)N2CCS(=O)(=O)CC2)cn1` [Example 178, (1,1-Dioxo-1,6-thiomorpholin-4-yl)-(6-{[3-(4-fluoro-phenyl)-5-methyl-isoxazol-4-ylmethyl]-amino}-pyridin-3-yl)-methanone]: the Ki came to 29.2 nM.

With `Cc1onc(-c2ccccc2)c1COc1ccc(C(=O)NC2CCCN(CC(=O)NCCO)C2)cn1` (stereo not drawn) [Example 45, N-{1-[(2-Hydroxy-ethylcarbamoyl)-methyl]-piperidin-3-yl}-6-(5-methyl-3-phenyl-isoxazol-4-ylmethoxy)-nicotinamide], the Ki came out at 8.4 nM.

Turning to `Cc1onc(-c2cccc(Cl)c2)c1COc1ccc(C(=O)NCC(F)(F)F)cn1` [Example 98, 6-[3-(3-Chloro-phenyl)-5-methyl-isoxazol-4-ylmethoxy]-N-(2,2,2-trifluoro-ethyl)-nicotinamide], the Ki worked out at 7.8 nM.

As to `Cc1cccc(OCc2c(-c3ccccc3)noc2C)n1` [Example 2, 2-Methyl-6-(5-methyl-3-phenyl-isoxazol-4-ylmethoxy)-pyridine], the Ki was determined as 3.1 nM.

As to `CCNC(=O)c1ccc(OCc2conc2-c2ccc(F)cn2)nc1` [Example 371, Ethyl-6-[3-(5-fluoro-pyridin-2-yl)-isoxazol-4-ylmethoxy]-nicotinamide], the Ki was 14.1 nM.

Consider `Cc1onc(-c2ccccc2)c1COc1ccc(C(=O)NCCCCO)cn1` [Example 220, N-(4-Hydroxy-butyl)-6-(5-methyl-3-phenyl-isoxazol-4-ylmethoxy)-nicotinamide], for which the Ki amounted to 2.6 nM.

For the compound `Cc1onc(-c2cccc(F)c2)c1COc1ccc(C(=O)NCC(F)(F)F)cn1` [Example 89, 6-[3-(3-Fluoro-phenyl)-5-methyl-isoxazol-4-ylmethoxy]-N-(2,2,2-trifluoro-ethyl)-nicotinamide], the Ki was found to be 3 nM.

Consider `Cc1onc(-c2ccccn2)c1COc1ccc(C(=O)NC(C)(C)CO)cn1` [Example 281, (2-Hydroxy-1,1-dimethyl-ethyl)-6-(5-methyl-3-pyridin-2-yl-isoxazol-4-ylmethoxy)-nicotinamide], for which the Ki stood at 4 nM.

For the compound `Cc1onc(-c2ccccc2)c1COc1ccc(C(=O)NC(CO)CO)cn1` [Example 201, N-(2-Hydroxy-1-hydroxymethyl-ethyl)-6-(5-methyl-3-phenyl-isoxazol-4-ylmethoxy)-nicotinamide], the Ki is 1.7 nM.

Take `O=C(c1ccc(OCc2c(-c3ccc(F)cc3)noc2C(F)(F)F)nc1)N1CCS(=O)(=O)CC1` [Example 145, (1,1-Dioxo-1λ6-thiomorpholin-4-yl)-{6-[3-(4-fluoro-phenyl)-5-trifluoromethyl-isoxazol-4-ylmethoxy]-pyridin-3-yl}-methanone]: the Ki was determined as 58.9 nM.

Turning to `O=C(NCCO)c1ccc(OCc2conc2-c2ccccn2)nc1` [Example 363, N-(2-Hydroxy-ethyl)-6-(3-pyridin-2-yl-isoxazol-4-ylmethoxy)-nicotinamide], the Ki was determined as 19.9 nM.

Consider `O=C(NC1CCS(=O)(=O)C1)c1ccc(OCc2conc2-c2ccc(F)cc2)nc1` (stereo not drawn) [Example 340, N-(1,1-Dioxo-tetrahydro-1,6-thiophen-3-yl)-6-[3-(4-fluoro-phenyl)-isoxazol-4-ylmethoxy]-nicotinamide], for which the Ki came to 19.4 nM.
